Biological target: T1, Glucan Synthase of Candida albicans (Candida albicans, UniProt O13428)
T1 construct: endogenous in cells
Experiment: Inhibition of the Glucan Synthase of Candida albicans (14C-UDP glucose incorporation, membrane proteins)
Type: biochemical
Settings: Candida albicans membranes, 25° C., 1 hour, radioactivity counted
Method: A—Inhibition of the Glucan Synthase of Candida albicans.
Candida albicans membranes were purified according to the process described by Tang et al Antimicrob. Agents Chemother 35, 99–103, 1991. 22.5 μg of membrane proteins are incubated in a mixture of 2 Mm of 14C-UDP glucose (specific activity=0.34 mCi./mmol, 50 μg of α-amylase, 1 Mm of dithiotreitol (DTT), 1 Mm EDTA, 100 Mm NaF, 7 μM of GTP-γ-S, 1M of sucrose and 50 Mm of Tris-HCL (pH 7.8) in a volume of 100 μl. The medium is incubated at 25° C. for 1 hour and the reaction is terminated by adding TCA at a final concentration of 5%. The reaction mixture is transferred onto a pre-humidified glass fibre filter. The filter is washed, dried and its radioactivity is counted. Mulundocandine is used as a positive control. Control of the vehicle is carried out with the same quantity of 1% DMSO. […] The enzyme is prepared according to the process of Beaulieu et al.(Antimicrob. Agents Chemother 38, 937–944, 1994. The protocol used is identical to the protocol described above for the enzyme of Candida albicans except that dithiotreitol is not used in the reaction mixture.

T1 sequence (O13428 1-1897): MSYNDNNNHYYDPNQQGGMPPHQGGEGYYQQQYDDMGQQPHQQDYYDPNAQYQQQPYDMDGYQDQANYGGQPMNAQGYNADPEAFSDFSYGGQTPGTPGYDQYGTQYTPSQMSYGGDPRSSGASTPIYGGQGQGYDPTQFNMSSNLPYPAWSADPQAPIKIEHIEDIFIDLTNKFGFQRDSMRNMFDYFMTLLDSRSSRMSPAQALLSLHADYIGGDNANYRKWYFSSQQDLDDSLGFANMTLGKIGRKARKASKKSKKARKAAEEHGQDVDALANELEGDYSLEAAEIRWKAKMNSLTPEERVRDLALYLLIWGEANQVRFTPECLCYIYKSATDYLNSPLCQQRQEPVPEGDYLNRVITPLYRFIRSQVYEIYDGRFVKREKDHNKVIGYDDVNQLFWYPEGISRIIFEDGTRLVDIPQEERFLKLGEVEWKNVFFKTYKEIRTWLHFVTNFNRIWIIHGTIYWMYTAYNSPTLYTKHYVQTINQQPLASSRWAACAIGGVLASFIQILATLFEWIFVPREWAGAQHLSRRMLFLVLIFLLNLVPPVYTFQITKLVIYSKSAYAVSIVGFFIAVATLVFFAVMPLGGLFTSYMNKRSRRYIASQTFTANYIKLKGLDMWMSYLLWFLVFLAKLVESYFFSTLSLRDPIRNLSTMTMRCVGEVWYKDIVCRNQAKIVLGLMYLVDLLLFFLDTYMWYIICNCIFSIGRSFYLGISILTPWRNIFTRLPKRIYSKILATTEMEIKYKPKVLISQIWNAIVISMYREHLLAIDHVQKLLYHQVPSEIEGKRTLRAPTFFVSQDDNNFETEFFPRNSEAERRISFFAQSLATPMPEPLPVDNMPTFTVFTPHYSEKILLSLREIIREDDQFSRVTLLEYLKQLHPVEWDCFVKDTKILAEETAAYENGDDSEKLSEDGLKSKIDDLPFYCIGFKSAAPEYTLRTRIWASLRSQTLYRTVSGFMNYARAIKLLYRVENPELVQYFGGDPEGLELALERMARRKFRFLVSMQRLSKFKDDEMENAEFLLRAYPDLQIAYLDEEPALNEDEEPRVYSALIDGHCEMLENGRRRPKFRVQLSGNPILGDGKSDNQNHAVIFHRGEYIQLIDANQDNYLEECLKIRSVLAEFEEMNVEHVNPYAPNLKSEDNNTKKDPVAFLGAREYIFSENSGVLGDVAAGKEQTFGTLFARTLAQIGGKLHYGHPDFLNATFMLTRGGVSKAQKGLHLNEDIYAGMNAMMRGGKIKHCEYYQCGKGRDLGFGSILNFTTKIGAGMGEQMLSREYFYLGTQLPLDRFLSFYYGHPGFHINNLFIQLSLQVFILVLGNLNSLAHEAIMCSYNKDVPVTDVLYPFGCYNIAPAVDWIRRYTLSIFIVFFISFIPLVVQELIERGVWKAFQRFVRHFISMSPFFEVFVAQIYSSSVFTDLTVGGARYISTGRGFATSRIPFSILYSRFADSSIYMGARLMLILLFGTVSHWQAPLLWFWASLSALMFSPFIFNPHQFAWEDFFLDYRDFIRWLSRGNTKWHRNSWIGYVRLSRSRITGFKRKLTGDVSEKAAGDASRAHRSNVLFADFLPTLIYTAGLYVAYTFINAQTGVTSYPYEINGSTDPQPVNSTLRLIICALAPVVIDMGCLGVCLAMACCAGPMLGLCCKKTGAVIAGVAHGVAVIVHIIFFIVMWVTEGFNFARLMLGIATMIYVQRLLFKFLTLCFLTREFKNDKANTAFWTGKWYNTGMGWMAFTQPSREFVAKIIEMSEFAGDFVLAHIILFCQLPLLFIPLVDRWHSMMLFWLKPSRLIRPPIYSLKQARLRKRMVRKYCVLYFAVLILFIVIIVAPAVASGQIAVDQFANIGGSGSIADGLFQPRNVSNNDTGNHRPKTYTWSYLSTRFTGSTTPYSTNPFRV
T1 sequence (O42825 1-195 partner limits assumed): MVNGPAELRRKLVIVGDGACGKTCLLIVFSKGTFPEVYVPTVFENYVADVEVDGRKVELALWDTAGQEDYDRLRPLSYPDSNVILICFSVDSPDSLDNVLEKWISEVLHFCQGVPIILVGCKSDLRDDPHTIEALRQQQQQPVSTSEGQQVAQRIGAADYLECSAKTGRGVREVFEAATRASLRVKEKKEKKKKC

Substance: Trans 1-[4-[(2-aminocyclo-hexyl)-amino]-N2-[[4″-(pentyloxy) [1,1′:4′,1″-terphenyl]-4-yl]-carbonyl]-L-ornithine]-4-[4-(4-hydroxyphenyl)-L-threonine]-5-L-serine-echinocandine B trifluoroacetate (isomer A) [Example 3 isomer A]
- Inhibition of the glucan synthase of Candida albicans: good activity

Reference: patent US7022669B1, “Echinocandin derivatives, method for preparing same and application as antifungal agents” (Aventis Pharma S.A., priority 1999, dated 2006)
